One experiment has as its target T1, mTOR (Homo sapiens, UniProt P42345).
T1 construct: purchased Invitrogen Corporation (Carlsbad/CA, USA) PV4753
Put plainly: Biochemical assay for m-TOR by TR-FRET. As to conditions: 8 μM ATP, 400 nM GFP-4EBP1, 0.5 nM mTOR. The method, boiled down: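 TR-FRET detection of pThr46 on GFP-4EBP1 (400 nM final) using Tb3+-labelled antibody (0.5 nM), added with EDTA to stop reactions. Reactions ran at rt with 0.5 nM mTOR and 8 μM ATP (final) in HEPES pH 7.5 buffer containing 10 mM MnCl2.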
A general note: In TR-FRET formats the signal depends on donor and acceptor labels being close together.

The subject of experiment [1] is PKB Ser473 phosphorylation in Rat1-myr-HA-p110 alpha cells. Kind of experiment: Reverse protein array assay, PKB Ser473 phosphorylation in Rat1-myr-p110 alpha cells. Particulars: 0.5 h, pAkt Ser473, 30 minutes compound incubation, read-out: p-PKB IC50. In kind it is cell-based. The method, boiled down:
(§1)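 Rat1 cells expressing myristoylated HA-tagged p110 alpha, beta or delta were plated for at least 20 h, then exposed to 8-step serial compound dilutions (0.2% DMSO final) for 30 min at 37 °C. Lysates were spotted at four dilutions on protein microarrays, and relative fluorescence intensity of phospho-Ser473 PKB was calculated.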

For experiment [2], the system named is PKB Ser473 phosphorylation in Rat1-myr-HA-p110 beta cells. Put plainly: Reverse protein array assay, PKB Ser473 phosphorylation in Rat1-myr-p110 beta cells. Particulars: 0.5 h, pAkt Ser473, 30 minutes incubation, read-out: p-PKB IC50. In kind it is cell-based. In short, it runs like this: as §1
Experiment [3] concerns PKB Ser473 phosphorylation in Rat1-myr-HA-p110 delta cells. Kind of experiment: Reverse protein array assay, PKB Ser473 phosphorylation in Rat1-myr-p110 delta cells. In kind it is cell-based. As to conditions: read-out: p-PKB IC50. The method, boiled down:
as §1

The test system of experiment [4] is S6 Ribosomal Protein phosphorylation Ser235/236 in TSC1 null mouse embryo fibroblast (MEF) cells. Kind of experiment: Reverse protein array assay, S6 Ribosomal Protein phosphorylation Ser235/236 in TSC1 null MEF cells. In kind it is cell-based. As to conditions: 1 h, pS6 ribosomal protein Ser235/236, 60 minutes incubation, read-out: p-S6 IC50. In short, it runs like this:
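TSC1−/− MEFs, seeded and held ≥20 h at 37 °C/5% CO2, were exposed to 8-step serial compound dilutions (0.02% DMSO final; DMSO vehicle control) for 60 min at 37 °C. Cells were then lysed on ice for 10 min and lysates spotted onto reverse protein array chips.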

pIC50: −log10 of the molar value.

Consider 15 compounds from patent US20140005163A1 (NOVARTIS AG, priority 2010, published 2014).

T1 sequence (P42345 1360-2549 limits assumed): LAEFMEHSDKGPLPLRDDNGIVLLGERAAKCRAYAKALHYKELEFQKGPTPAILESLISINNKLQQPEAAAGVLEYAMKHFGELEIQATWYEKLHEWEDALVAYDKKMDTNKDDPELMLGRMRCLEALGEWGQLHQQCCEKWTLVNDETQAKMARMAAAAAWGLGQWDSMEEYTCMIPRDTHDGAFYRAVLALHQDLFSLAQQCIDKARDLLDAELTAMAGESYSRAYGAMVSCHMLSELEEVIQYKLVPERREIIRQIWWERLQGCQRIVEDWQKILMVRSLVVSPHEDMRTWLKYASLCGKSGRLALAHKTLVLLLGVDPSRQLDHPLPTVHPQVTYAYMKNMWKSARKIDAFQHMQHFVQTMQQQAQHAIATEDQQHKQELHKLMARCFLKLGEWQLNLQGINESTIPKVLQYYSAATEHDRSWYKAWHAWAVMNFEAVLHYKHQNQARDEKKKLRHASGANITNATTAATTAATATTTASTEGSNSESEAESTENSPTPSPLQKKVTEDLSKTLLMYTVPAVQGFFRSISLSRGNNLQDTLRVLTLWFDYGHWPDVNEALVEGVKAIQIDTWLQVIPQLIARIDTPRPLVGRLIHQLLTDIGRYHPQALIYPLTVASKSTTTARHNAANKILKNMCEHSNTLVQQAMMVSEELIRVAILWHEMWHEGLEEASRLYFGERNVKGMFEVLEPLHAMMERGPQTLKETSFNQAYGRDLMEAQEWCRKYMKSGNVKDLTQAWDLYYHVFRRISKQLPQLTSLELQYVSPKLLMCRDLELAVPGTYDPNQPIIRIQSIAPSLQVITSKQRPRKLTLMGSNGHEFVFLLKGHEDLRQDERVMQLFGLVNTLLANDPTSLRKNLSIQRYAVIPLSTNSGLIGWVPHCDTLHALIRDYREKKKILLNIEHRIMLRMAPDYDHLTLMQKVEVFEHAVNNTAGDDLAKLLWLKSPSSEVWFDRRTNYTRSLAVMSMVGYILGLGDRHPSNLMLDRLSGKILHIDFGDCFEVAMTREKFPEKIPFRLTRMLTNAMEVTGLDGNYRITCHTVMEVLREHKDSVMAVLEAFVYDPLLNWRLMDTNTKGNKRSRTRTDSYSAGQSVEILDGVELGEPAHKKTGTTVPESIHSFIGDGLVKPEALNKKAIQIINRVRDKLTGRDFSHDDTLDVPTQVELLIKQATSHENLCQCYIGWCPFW

For `CCCOc1ccc(-c2ccc3ncc4c(c3c2)n(-c2cn(C)nc2C)c(=O)n4C)cn1` [Example 55, 1-(1,3-Dimethyl-1H-pyrazol-4-yl)-3-methyl-8-(6-propoxy-pyridin-3-yl)-1,3-dihydro-imidazo[4,5-c]quinolin-2-one], the pIC50 (as a rule, the negative decadic logarithm of the IC50, by convention in mol/L) at mTOR was 7.60; in experiment [1] it was 7.70; in experiment [2], 7.68; in experiment [3], 7.27; in experiment [4], 7.74.

Take `C=CCn1c(=O)n(-c2cn(C)nc2C)c2c3cc(-c4cncc(N)c4)ccc3ncc21` [Example 246, 3-Allyl-8-(5-amino-pyridin-3-yl)-1-(1,3-dimethyl-1H-pyrazol-4-yl)-1,3-dihydro-imidazo[4,5-c]quinolin-2-one]: the pIC50 on mTOR is 6.83; in experiment [1], 6.64; in experiment [2], 6.53; in experiment [3], 6.08; in experiment [4], 7.39.

Take `COc1ncc(-c2ccc3ncc4c(c3c2)n(-c2cn(C(C)C)nc2C)c(=O)n4C)c(OC)n1` [Example 234.3, 8-(2,4-Dimethoxy-pyrimidin-5-yl)-1-(1-isopropyl-3-methyl-1H-pyrazol-4-yl)-3-methyl-1,3-dihydro-imidazo[4,5-c]quinolin-2-one]: the pIC50 was 7.77 at mTOR; 7.82 in experiment [1]; 7.82 in experiment [2]; 7.52 in experiment [3]; 8.70 in experiment [4].

On to `Cc1nn(C)cc1-n1c(=O)n(C)c2cnc3ccc(-c4cncc(OC(CF)CF)c4)cc3c21` [Example 182, 1-(1,3-Dimethyl-1H-pyrazol-4-yl)-8-[5-(2-fluoro-1-fluoromethyl-ethoxy)-pyridin-3-yl]-3-methyl-1,3-dihydro-imidazo[4,5-c]quinolin-2-one], for which the pIC50 at mTOR was 8.22; in experiment [1], 7.82; in experiment [2], 7.74; in experiment [3] it was 7.25; in experiment [4], 8.30.

With `Cc1nn(C(C)C)cc1-n1c(=O)n(C)c2cnc3ccc(-c4ccc(C(N)=O)nc4)cc3c21` [Example 112, 5-[1-(1-Isopropyl-3-methyl-1H-pyrazol-4-yl)-3-methyl-2-oxo-2,3-dihydro-1H-imidazo[4,5-c]quinolin-8-yl]-pyridine-2-carboxylic acid amide], the pIC50 at mTOR was 7.70; in experiment [1], 7.62; in experiment [2], 7.14; in experiment [3] it was 7.16; in experiment [4] it was 7.22.

With `Cc1noc(C)c1-n1c(=O)n(C)c2cnc3ccc(-c4cnc(N)c(C(F)(F)F)c4)cc3c21` [Example 25.5, 8-(6-Amino-5-trifluoromethyl-pyridin-3-yl)-1-(3,5-dimethyl-isoxazol-4-yl)-3-methyl-1,3-dihydro-imidazo[4,5-c]quinolin-2-one], the pIC50 on mTOR is 6.36; in experiment [1], 7.01; in experiment [2], 6.94; in experiment [3] it was 6.80; in experiment [4], 8.10.

Take `Cc1c(-n2c(=O)n(C)c3cnc4ccc(-c5ccc(N(C)C)nc5)cc4c32)cnn1C` [Example 4.4, 8-(6-Dimethylamino-pyridin-3-yl)-1-(1,5-dimethyl-1H-pyrazol-4-yl)-3-methyl-1,3-dihydro-imidazo[4,5-c]quinolin-2-one]: the pIC50 at mTOR is 7.00; in experiment [1], 7.28; in experiment [2], 6.96; in experiment [3], 6.81; in experiment [4] it was 8.00.

On to `CCOCc1cc(-c2ccc3ncc4c(c3c2)n(-c2cn(CC)nc2C)c(=O)n4C)cnc1N` [Example 166.2, 8-(6-Amino-5-ethoxymethyl-pyridin-3-yl)-1-(1-ethyl-3-methyl-1H-pyrazol-4-yl)-3-methyl-1,3-dihydro-imidazo[4,5-c]quinolin-2-one], for which the pIC50 at mTOR is 7.26; in experiment [1], 7.42; in experiment [2], 7.07; in experiment [3], 7.30; in experiment [4], 8.65.

For the compound `Cc1nn(C)cc1-n1c(=O)n(C)c2cnc3ccc(-c4cncc(OCCF)c4)cc3c21` [Example 181, 1-(1,3-Dimethyl-1H-pyrazol-4-yl)-8-[5-(2-fluoro-ethoxy)-pyridin-3-yl]-3-methyl-1,3-dihydro-imidazo[4,5-c]quinolin-2-one], the pIC50 at mTOR was 8.00; in experiment [1], 7.29; in experiment [2], 7.27; in experiment [3], 7.21; in experiment [4] it was 8.52.

`CNc1ccc(-c2ccc3ncc4c(c3c2)n(-c2cn(CC(=O)N(C)C)nc2C)c(=O)n4C)cn1` [Example 118.3, N,N-Dimethyl-2-{3-methyl-4-[3-methyl-8-(6-methylamino-pyridin-3-yl)-2-oxo-2,3-dihydro-imidazo[4,5-c]quinolin-1-yl]-pyrazol-1-yl}-acetamide]: the pIC50 is 8.05 on mTOR; 6.97 in experiment [1]; 7.37 in experiment [2]; 6.40 in experiment [3]; 7.82 in experiment [4].

Regarding `Cc1nn(C)cc1-n1c(=O)n(C)c2cnc3ccc(-c4cncc(C(C)O)c4)cc3c21` (racemic) [Example 217, (rac)-1-(1,3-Dimethyl-1H-pyrazol-4-yl)-8-[5-(1-hydroxy-ethyl)-pyridin-3-yl]-3-methyl-1,3-dihydro-imidazo[4,5-c]quinolin-2-one], the negative-log IC50 (pIC50) was 7.92 on mTOR; 6.97 in experiment [1]; 6.79 in experiment [2]; 6.60 in experiment [3]; 8.00 in experiment [4].

As for `CNc1cc(-c2ccc3ncc4c(c3c2)n(-c2cn(C)nc2Cl)c(=O)n4C)cnc1COC` [Example 160.1, 1-(3-Chloro-1-methyl-1H-pyrazol-4-yl)-8-(6-methoxymethyl-5-methylamino-pyridin-3-yl)-3-methyl-1,3-dihydro-imidazo[4,5-c]quinolin-2-one], the pIC50 was greater than 8.52 on mTOR; greater than 8.30 in experiment [1]; greater than 8.30 in experiment [2]; 8.00 in experiment [3]; greater than 9.30 in experiment [4].

As to `Cc1nn(C)cc1-n1c(=O)n(C)c2cnc3ccc(-c4cnc(F)c(N(C)C)c4)cc3c21` [Example 151, 8-(5-Dimethylamino-6-fluoro-pyridin-3-yl)-1-(1,3-dimethyl-1H-pyrazol-4-yl)-3-methyl-1,3-dihydro-imidazo[4,5-c]quinolin-2-one], the pIC50 was 7.82 at mTOR; 7.68 in experiment [1]; 7.66 in experiment [2]; 7.40 in experiment [3]; 8.40 in experiment [4].

For `Cc1nn(C)cc1-n1c(=O)n(C)c2cnc3ccc(-c4cnc(N)c(F)c4)cc3c21` [Example 142.2, 8-(6-Amino-5-fluoro-pyridin-3-yl)-1-(1,3-dimethyl-1H-pyrazol-4-yl)-3-methyl-1,3-dihydro-imidazo[4,5-c]quinolin-2-one], the pIC50 is 8.22 at mTOR; 8.22 in experiment [1]; 7.96 in experiment [2]; 7.72 in experiment [3]; greater than 9.30 in experiment [4].

Turning to `CCn1cc(-n2c(=O)n(C)c3cnc4ccc(-c5ccc(CO)nc5)cc4c32)c(C)n1` [Example 16.1, 1-(1-ethyl-3-methyl-1H-pyrazol-4-yl)-8-(6-hydroxymethyl-pyridin-3-yl)-3-methyl-1,3-dihydro-imidazo[4,5-c]quinolin-2-one], the negative-log IC50 (pIC50) was 7.47 on mTOR; 7.13 in experiment [1]; 7.47 in experiment [2]; 6.89 in experiment [3]; 7.48 in experiment [4].
